The source made the active and inactive calls.
How the values were obtained:
Melanocortin receptor 4 = Melanocortin receptor 4 (Homo sapiens, UniProt P32245); test: inhibitors of MC4R cAMP signaling – cell-based, TR-FRET, biased antagonists, dose response (AID 602298); assay type: functional;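 further: antagonist potency against agonist-stimulated cAMP production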
[1] = cAMP pathway inhibition in counterscreen cell line – TR-FRET cAMP detection, counter-screen for MC4R biased antagonist project, dose response (AID 602305); assay type: functional, cell-based;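 further: U2OS cells stimulated with forskolin near its EC80 as the cAMP inducer; potency is for inhibition of forskolin-stimulated cAMP signaling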
Aurora kinase B = Aurora kinase B (Homo sapiens, UniProt Q96GD4); assay type: functional
Aurora kinase A = Aurora kinase A (Homo sapiens, UniProt O14965); assay type: functional;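 further: value from the Navigating the Kinome kinase panel profiling, panel entry STK6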
[2] = target: Vascular endothelial growth factor receptor 2 (Homo sapiens, UniProt P35968); assay type: functional
[3] = target: Hepatocyte growth factor receptor (Homo sapiens, UniProt P08581); assay type: functional;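 further: kinase panel profiling across the kinome, with MET as the panel member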
[4] = target: cAMP-dependent protein kinase catalytic subunit alpha (Homo sapiens, UniProt P17612); assay type: functional
[5] = target: Glycogen synthase kinase-3 beta (Homo sapiens, UniProt P49841); assay type: functional;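 further: value comes from a broad kinome profiling panel, with GSK3B as the panel member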
[6] = target: Fibroblast growth factor receptor 1 (Homo sapiens, UniProt P11362); assay type: functional
[7] = target: High affinity nerve growth factor receptor (Homo sapiens, UniProt P04629); assay type: functional;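 further: NTRK1 tested as one member of a kinome-wide profiling panel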
[8] = target: Multidrug resistance protein CDR2 (Candida albicans (strain SC5314 / ATCC MYA-2876) (Yeast), UniProt P78595); test: inhibition of Nile Red efflux via Candida CDR2 – S. cerevisiae AD1-8u, singleplex, Cherry Pick1 hits, dose response (AID 588604); assay type: functional
[9] = target: BDNF/NT-3 growth factors receptor (Homo sapiens, UniProt Q16620); assay type: functional;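 further: NTRK2 measured as one member of a broad kinome-wide kinase profiling panel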
[10] = target: Dual specificity tyrosine-phosphorylation-regulated kinase 1B (Homo sapiens, UniProt Q9Y463); test: Navigating the Kinome. Panel member name: DYRK1B; assay type: functional
[11] = target: Macrophage-stimulating protein receptor (Homo sapiens, UniProt Q04912); test: Navigating the Kinome. Panel member name: MST1R; assay type: functional
[12] = target: G protein-coupled receptor kinase 5 (Homo sapiens, UniProt P34947); test: Navigating the Kinome. Panel member name: GPRK5; assay type: functional
[13] = target: Serine/threonine-protein kinase TBK1 (Homo sapiens, UniProt Q9UHD2); test: Navigating the Kinome. Panel member name: TBK1; assay type: functional
[14] = target: RAC-gamma serine/threonine-protein kinase (Homo sapiens, UniProt Q9Y243); assay type: functional
[15] = target: Serine/threonine-protein kinase pim-1 (Homo sapiens, UniProt P11309); assay type: functional
[16] = target: Casein kinase I isoform alpha (Homo sapiens, UniProt P48729); assay type: functional
[17] = target: Serine/threonine-protein kinase pim-3 (Homo sapiens, UniProt Q86V86); assay type: functional;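 further: value obtained as one member of a broad kinase panel profiling effort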
Activated CDC42 kinase 1 = Activated CDC42 kinase 1 (Homo sapiens, UniProt Q07912); test: Navigating the Kinome. Panel member name: ACK1; assay type: functional
[18] = target: Cyclin-dependent kinase 7 (Homo sapiens, UniProt P50613); assay type: functional;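 further: value comes from a kinome-wide kinase profiling panel in which CDK7 is one member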
[19] = target: Dual specificity protein kinase CLK2 (Homo sapiens, UniProt P49760); assay type: functional
[20] = target: 5'-AMP-activated protein kinase catalytic subunit alpha-1 (Homo sapiens, UniProt Q13131); assay type: functional
[21] = target: Leucine-rich repeat serine/threonine-protein kinase 2 (Homo sapiens, UniProt Q5S007); assay type: functional;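 further: value from a broad kinome-wide panel profiling study in which LRRK2 was one of the kinases tested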
[22] = target: Serine/threonine-protein kinase Nek2 (Homo sapiens, UniProt P51955); assay type: functional
[23] = target: cAMP-dependent protein kinase catalytic subunit PRKX (Homo sapiens, UniProt P51817); assay type: functional
[24] = target: Serine/threonine-protein kinase D3 (Homo sapiens, UniProt O94806); assay type: functional;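 further: determined within a kinase panel screen, with PRKCN as the panel member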
[25] = target: RAC-alpha serine/threonine-protein kinase (Homo sapiens, UniProt P31749); assay type: functional;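 further: AKT1 affinity measured as one member of a kinome-wide kinase profiling panel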
[26] = target: Ribosomal protein S6 kinase alpha-3 (Homo sapiens, UniProt P51812); assay type: functional;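 further: measured within a kinome-wide profiling panel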
[27] = target: Calcium/calmodulin-dependent protein kinase type II subunit alpha (Homo sapiens, UniProt Q9UQM7); test: Navigating the Kinome. Panel member name: CAMK2A; assay type: functional
[28] = target: Serine/threonine-protein kinase Chk1 (Homo sapiens, UniProt O14757); assay type: functional;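 further: measured as one member of a kinome-wide kinase profiling panel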
LIM domain kinase 1 = LIM domain kinase 1 (Homo sapiens, UniProt P53667); test: Navigating the Kinome. Panel member name: LIMK1; assay type: functional
[29] = target: Serine/threonine-protein kinase PLK1 (Homo sapiens, UniProt P53350); assay type: functional;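 further: PLK1 measured as one member of a kinome-wide profiling panel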
[30] = target: Rho-associated protein kinase 1 (Homo sapiens, UniProt Q13464); assay type: functional;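 further: measured within a broad kinome-wide panel profiling many kinases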
[31] = target: Serine/threonine-protein kinase PAK 4 (Homo sapiens, UniProt O96013); assay type: functional;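 further: value obtained within a kinome profiling panel in which PAK4 was one of the panel members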
[32] = target: Cyclin-dependent kinase 5 (Homo sapiens, UniProt Q00535); assay type: functional;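 further: CDK5 measured as one member of a kinase profiling panel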
[33] = target: Serine/threonine-protein kinase PLK3 (Homo sapiens, UniProt Q9H4B4); assay type: functional
[34] = target: Dual specificity tyrosine-phosphorylation-regulated kinase 1A (Homo sapiens, UniProt Q13627); assay type: functional;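 further: measured against DYRK1A as one member of a broad kinome profiling panel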
[35] = target: Cyclin-dependent kinase 8 (Homo sapiens, UniProt P49336); test: Navigating the Kinome. Panel member name: CDK8; assay type: functional
[36] = target: Dual specificity mitogen-activated protein kinase kinase 1 (Homo sapiens, UniProt Q02750); test: Navigating the Kinome. Panel member name: MAP2K1; assay type: functional
[37] = target: Dual specificity mitogen-activated protein kinase kinase 2 (Homo sapiens, UniProt P36507); test: Navigating the Kinome. Panel member name: MAP2K2; assay type: functional
[38] = target: Mitogen-activated protein kinase 14 (Homo sapiens, UniProt Q16539); assay type: functional;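 further: part of a kinome-wide panel, MAPK14 entry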
[39] = target: Mitogen-activated protein kinase 9 (Homo sapiens, UniProt P45984); assay type: functional;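 further: value from a kinome panel profiling assay, MAPK9 panel entry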
[40] = target: Glycogen synthase kinase-3 alpha (Homo sapiens, UniProt P49840); assay type: functional;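 further: GSK3A result taken from a broad kinome-wide kinase panel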
[41] = target: Inhibitor of nuclear factor kappa-B kinase subunit epsilon (Homo sapiens, UniProt Q14164); test: Navigating the Kinome. Panel member name: IKBKE; assay type: functional
[42] = target: Dual specificity protein kinase CLK4 (Homo sapiens, UniProt Q9HAZ1); assay type: functional
[43] = target: Serine/threonine-protein kinase TAO1 (Homo sapiens, UniProt Q7L7X3); assay type: functional
Chain of Serine/threonine-protein kinase TAO1 (Q7L7X3 whole entry): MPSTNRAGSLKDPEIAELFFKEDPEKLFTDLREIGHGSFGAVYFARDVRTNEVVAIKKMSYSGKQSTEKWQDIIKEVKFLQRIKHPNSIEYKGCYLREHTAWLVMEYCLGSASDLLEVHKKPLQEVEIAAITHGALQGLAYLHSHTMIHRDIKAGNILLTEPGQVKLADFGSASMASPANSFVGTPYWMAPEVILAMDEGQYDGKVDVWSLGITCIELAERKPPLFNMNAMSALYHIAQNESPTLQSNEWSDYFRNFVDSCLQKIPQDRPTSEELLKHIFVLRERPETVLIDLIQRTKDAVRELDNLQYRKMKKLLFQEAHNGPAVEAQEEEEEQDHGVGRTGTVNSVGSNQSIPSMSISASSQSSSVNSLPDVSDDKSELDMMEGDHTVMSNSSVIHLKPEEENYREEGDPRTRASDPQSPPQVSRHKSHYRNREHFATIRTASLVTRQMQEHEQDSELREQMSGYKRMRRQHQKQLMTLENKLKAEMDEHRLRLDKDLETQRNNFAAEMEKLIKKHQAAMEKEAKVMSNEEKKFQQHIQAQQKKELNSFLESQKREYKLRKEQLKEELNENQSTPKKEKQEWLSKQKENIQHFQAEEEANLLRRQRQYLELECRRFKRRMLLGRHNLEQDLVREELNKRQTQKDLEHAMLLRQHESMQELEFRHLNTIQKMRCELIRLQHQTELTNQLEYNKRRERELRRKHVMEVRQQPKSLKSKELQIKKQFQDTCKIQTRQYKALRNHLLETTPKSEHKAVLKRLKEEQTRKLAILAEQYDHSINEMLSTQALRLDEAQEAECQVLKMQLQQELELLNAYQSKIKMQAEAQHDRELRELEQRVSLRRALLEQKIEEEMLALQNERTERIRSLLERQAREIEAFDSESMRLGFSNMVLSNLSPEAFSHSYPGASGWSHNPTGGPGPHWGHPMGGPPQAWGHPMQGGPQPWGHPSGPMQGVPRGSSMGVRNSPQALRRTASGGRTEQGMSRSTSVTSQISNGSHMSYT

Chain of Dual specificity protein kinase CLK4 (Q9HAZ1 whole entry): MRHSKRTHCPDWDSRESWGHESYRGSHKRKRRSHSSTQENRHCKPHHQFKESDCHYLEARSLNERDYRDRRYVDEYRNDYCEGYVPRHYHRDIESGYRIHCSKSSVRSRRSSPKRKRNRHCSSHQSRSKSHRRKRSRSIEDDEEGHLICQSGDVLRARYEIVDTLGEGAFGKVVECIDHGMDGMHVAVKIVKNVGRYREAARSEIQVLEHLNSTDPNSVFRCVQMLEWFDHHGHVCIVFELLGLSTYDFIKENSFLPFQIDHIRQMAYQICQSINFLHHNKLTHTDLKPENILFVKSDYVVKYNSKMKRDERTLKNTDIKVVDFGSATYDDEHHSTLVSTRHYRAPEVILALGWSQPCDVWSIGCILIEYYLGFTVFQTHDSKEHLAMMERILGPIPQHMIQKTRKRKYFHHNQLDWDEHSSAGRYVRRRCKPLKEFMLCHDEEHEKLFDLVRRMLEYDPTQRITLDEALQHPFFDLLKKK
Chain of Glycogen synthase kinase-3 beta (P49841 whole entry): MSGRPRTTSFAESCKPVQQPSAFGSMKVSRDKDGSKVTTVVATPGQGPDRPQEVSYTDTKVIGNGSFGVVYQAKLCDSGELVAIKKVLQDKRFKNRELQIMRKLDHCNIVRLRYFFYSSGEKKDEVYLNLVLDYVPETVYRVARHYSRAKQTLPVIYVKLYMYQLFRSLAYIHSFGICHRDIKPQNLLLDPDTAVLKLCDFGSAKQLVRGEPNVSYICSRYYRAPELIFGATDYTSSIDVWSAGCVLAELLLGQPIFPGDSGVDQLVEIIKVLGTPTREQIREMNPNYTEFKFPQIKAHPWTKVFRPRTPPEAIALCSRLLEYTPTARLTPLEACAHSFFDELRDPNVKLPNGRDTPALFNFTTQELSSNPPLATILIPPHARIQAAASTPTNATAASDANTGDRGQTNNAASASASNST
Chain of Cyclin-dependent kinase 5 (Q00535 whole entry): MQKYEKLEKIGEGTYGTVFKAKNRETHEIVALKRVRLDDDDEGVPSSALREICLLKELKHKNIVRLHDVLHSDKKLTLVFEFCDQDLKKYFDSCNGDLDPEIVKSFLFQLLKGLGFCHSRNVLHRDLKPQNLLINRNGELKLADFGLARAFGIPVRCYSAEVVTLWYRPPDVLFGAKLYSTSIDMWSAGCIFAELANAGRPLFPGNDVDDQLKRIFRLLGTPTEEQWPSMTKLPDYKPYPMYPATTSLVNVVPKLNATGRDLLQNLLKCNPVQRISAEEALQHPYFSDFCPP
Chain of Aurora kinase B (Q96GD4 whole entry): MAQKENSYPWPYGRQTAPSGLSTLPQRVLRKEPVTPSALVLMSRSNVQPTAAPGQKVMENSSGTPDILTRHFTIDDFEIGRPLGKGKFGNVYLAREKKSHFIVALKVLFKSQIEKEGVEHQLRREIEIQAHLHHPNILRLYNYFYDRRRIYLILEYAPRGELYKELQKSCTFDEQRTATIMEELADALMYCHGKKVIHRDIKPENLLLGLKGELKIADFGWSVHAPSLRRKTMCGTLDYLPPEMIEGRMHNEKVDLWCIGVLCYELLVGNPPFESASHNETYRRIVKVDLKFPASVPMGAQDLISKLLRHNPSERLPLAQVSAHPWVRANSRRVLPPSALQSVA
Chain of Fibroblast growth factor receptor 1 (P11362 whole entry): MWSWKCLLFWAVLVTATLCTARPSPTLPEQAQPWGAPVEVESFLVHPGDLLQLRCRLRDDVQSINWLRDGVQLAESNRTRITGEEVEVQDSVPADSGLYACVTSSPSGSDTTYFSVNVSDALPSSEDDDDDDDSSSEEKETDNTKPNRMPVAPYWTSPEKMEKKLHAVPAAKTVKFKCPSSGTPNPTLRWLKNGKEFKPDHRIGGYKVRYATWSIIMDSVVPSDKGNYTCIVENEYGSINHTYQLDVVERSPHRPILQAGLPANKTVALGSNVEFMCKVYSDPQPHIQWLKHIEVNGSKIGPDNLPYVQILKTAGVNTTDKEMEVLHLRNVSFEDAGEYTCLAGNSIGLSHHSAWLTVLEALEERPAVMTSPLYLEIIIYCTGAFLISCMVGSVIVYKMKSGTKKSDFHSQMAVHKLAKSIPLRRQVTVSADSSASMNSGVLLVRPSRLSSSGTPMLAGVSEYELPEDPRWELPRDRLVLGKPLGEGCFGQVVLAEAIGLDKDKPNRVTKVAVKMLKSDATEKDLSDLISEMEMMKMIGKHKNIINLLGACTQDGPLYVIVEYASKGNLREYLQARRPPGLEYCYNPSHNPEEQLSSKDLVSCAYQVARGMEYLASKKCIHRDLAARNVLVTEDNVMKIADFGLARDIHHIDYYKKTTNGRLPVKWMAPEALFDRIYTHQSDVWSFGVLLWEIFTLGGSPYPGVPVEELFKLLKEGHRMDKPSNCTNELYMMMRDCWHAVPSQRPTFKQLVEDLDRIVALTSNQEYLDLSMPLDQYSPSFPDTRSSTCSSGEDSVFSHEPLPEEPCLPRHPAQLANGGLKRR
Chain of G protein-coupled receptor kinase 5 (P34947 whole entry): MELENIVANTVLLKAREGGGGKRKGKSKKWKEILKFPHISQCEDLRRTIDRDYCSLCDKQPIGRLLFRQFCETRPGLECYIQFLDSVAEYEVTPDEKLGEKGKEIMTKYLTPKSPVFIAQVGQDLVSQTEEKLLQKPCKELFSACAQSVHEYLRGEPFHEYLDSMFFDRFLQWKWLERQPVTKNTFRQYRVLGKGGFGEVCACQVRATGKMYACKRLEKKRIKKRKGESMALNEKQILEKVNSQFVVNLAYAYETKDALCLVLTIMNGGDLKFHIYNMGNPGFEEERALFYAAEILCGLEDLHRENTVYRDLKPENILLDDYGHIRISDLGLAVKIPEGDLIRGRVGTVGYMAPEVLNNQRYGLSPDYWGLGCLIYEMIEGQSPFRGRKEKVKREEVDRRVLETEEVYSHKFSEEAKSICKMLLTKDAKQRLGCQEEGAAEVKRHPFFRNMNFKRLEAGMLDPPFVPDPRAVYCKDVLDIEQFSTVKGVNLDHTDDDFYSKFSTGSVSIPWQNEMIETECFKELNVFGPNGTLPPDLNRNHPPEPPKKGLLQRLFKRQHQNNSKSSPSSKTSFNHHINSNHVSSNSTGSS
Chain of 5'-AMP-activated protein kinase catalytic subunit alpha-1 (Q13131 whole entry): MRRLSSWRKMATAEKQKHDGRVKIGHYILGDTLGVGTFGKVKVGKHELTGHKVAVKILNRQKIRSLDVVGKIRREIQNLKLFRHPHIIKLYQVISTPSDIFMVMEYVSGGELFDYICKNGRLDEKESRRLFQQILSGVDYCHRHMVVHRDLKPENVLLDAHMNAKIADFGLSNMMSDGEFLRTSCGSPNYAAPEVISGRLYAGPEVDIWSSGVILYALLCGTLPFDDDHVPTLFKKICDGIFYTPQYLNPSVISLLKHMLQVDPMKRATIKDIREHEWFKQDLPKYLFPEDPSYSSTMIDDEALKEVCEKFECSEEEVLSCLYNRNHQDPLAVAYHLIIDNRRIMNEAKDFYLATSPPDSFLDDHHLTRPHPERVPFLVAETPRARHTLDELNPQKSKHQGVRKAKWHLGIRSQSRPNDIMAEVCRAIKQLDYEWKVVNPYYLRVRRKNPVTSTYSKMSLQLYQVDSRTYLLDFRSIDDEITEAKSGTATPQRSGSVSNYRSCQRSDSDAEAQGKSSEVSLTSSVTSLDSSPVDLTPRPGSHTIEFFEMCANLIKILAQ
Chain of Aurora kinase A (O14965 whole entry): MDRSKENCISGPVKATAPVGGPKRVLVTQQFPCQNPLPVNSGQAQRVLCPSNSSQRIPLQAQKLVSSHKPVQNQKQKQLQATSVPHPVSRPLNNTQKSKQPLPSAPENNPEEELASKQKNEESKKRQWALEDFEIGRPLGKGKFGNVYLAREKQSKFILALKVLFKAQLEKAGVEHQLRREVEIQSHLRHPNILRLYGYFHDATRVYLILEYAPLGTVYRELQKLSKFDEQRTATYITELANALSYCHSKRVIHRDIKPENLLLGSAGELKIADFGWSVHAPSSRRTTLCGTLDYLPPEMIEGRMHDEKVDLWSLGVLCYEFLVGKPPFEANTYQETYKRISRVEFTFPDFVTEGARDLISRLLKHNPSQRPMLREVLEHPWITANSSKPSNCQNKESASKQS

For `O=C(CNC(=O)C(c1ccccc1)c1ccccc1)OCc1ccccc1`, the IC50 (Melanocortin receptor 4) was > 64.6 µM (inactive) and the IC50 [1] was > 64.6 µM (inactive).
In the case of `Nc1nc(SCC(=O)Nc2ncccn2)nc2nc[nH]c12`, the Ki (Aurora kinase B) is reported as 0.0794 µM (active), the Ki (Aurora kinase A) is reported as > 2 µM (inactive) and the Ki [2] is reported as 3.98 µM (active).
With `O=C1NCc2ccc(-c3ccc(Cl)cc3)cc21` the Ki [3] was 63.1 µM (active), the Ki [4] was 50.1 µM (active) and the Ki [5] was 63.1 µM (active). For the same compound, the Ki [6] was 63.1 µM (active) and the Ki [7] was 63.1 µM (active).
For `O=C(N=C(NC(=O)c1ccccc1)Nc1nc2ccccc2o1)c1ccccc1`, the EC50 [8] was 1.53 µM (active).
With `O=C1NCc2c(Br)cccc21` the Ki [9] was > 79.4 µM (inactive), the Ki [10] was 31.6 µM (active) and the Ki [11] was > 79.4 µM (inactive). The Ki [12] was > 79.4 µM (inactive), the Ki [13] was > 63.1 µM (inactive) and the Ki [14] was > 100 µM (inactive). The Ki [15] was 50.1 µM (active), the Ki [5] was > 79.4 µM (inactive) and the Ki [16] was 63.1 µM (active). The Ki [17] was > 79.4 µM (inactive), the Ki (Aurora kinase B) was > 79.4 µM (inactive) and the Ki (Activated CDC42 kinase 1) was > 79.4 µM (inactive). For the same compound, the Ki [18] was > 79.4 µM (inactive), the Ki [19] was > 79.4 µM (inactive) and the Ki [20] was > 63.1 µM (inactive). The Ki [21] was 31.6 µM (active), the Ki [22] was > 63.1 µM (inactive) and the Ki [6] was > 63.1 µM (inactive). The Ki [23] was > 63.1 µM (inactive), the Ki [24] was > 79.4 µM (inactive) and the Ki [25] was > 79.4 µM (inactive). For the same compound, the Ki [26] was > 79.4 µM (inactive), the Ki [27] was > 79.4 µM (inactive) and the Ki [28] was > 79.4 µM (inactive). For the same compound, the Ki (LIM domain kinase 1) was > 63.1 µM (inactive), the Ki [29] was > 79.4 µM (inactive) and the Ki [30] was 20 µM (active). The Ki [31] was > 100 µM (inactive), the Ki [32] was 63.1 µM (active) and the Ki [33] was > 79.4 µM (inactive). For the same compound, the Ki [34] was 20 µM (active), the Ki [35] was > 79.4 µM (inactive) and the Ki [36] was > 63.1 µM (inactive). For the same compound, the Ki [37] was > 79.4 µM (inactive), the Ki [38] was > 79.4 µM (inactive) and the Ki [39] was > 79.4 µM (inactive). For the same compound, the Ki [40] was > 79.4 µM (inactive), the Ki [41] was > 63.1 µM (inactive) and the Ki [42] was 6.31 µM (active).
With `Nc1cc(Nc2ccc(O)c(CNC(=O)C(F)(F)F)c2)ncn1` the Ki [32] was 0.794 µM (active), the Ki [43] was 1.58 µM (active) and the Ki [42] was 1.26 µM (active).

— ChEMBL document CHEMBL1201862, “PubChem BioAssay data set” (2004)
